# Laboratory results from patent US9844546B2, “Antibody against human HIF hydroxylase” (OXFORD UNIVERSITY INNOVATION LIMITED, priority 2001, dated 2017).
# Entries after “also recorded” stand apart in the source; their conditions may differ.
# System: pVHL
# Experiment: pVHL capture assay using biotinylated synthetic polypeptides
# Type: binding, human
# Details: wild type or mutant (Pro86His) pVHL; with or without cell extract
# Experimental: We synthesized a polypeptide (HIF-1α residues 556-574), containing a trans-4-hydroxy-S-proline residue at position 564 (19:Pro564Hyp), since the trans-4-hydroxylation is the commonest enzymatic proline oxidation (25). A polypeptide blocking assay was carried out using the 19:Pro564Hyp modified polypeptide and, as a control, the unmodified polypeptide without the trans-4-hydroxylation (19:WT). The 19:WT polypeptide was either incubated with cell extract before the binding assay or was untreated. The 19:Pro564Hyp polypeptide was added to a mixture of HIF-1α and pVHL-HA IVTTs at a concentration of 1, 0.25, 0.05 or 0.01 μM and the cell extract treated or untreated 19:WT polypeptide at a concentration of 0.5 μM. Interaction of HIF-1α with pVHL was then assayed by anti-HA immunoprecipitation. […] A pVHL capture assay was then carried out using biotinylated synthetic polypeptides. The same polypeptides, 19:Pro564Hyp and 19:WT were assessed for the ability to capture wild type or mutant (Pro86His) pVHL. […] In both cases capture was specific for wild type, as opposed to mutant, pVHL.
# • 1. G. L. Semenza, Genes Dev 14, 1983-91. (2000). • 2. N. V. Iyer, et al., Genes Dev. 12, 149-162 (1997). • 3. E. Maltepe, J. V. Schmidt, D. Baunoch, C. A. Bradfield, M. C. Simon, Nature 386, 403-407 (1997). • 4. G. L. Wang, B.-H. Jiang, E. A. Rue, G. L. Semenza, Proc. Natl. Acad. Sci. USA 92, 5510-5514 (1995). • 5. […]
row,Substance,capture of pVHL by biotinylated polypeptide
1,19:Pro564Hyp: polypeptide (HIF-1α residues 556-574) containing a trans-4-hydroxy-S-proline residue at position 564,captured wild type pVHL without pre-treatment; also recorded: specifically captured wild type but not mutant pVHL
2,19:WT: polypeptide comprising HIF-1α residues 556 to 574,captured pVHL only after incubation with cell extract; also recorded: could not interact without prior incubation with cell extract
